Assay results: patent US7625713B2, “Process for identifying a ligand that binds to the NEP binding site for the SMR1 pentapeptide” (Institut Pasteur, priority 2000, dated 2009)
Where a SMILES comes first, the peptide text is derived from it.

Columns and labels:
NEP [1] = target: T1, NEP (Rattus norvegicus, UniProt P07861); assay: Substance P endoproteolysis by rat peripheral tissue membrane preparations; type: biochemical
T1 construct: peripheral tissue membrane preparations that are known to be enriched in NEP-peptidase; from tissue; host or cells: rat renal outer medulla/kidney, intestine mucosa, placenta, prostate, dental and bone tissues, submandibular gland (membrane preparations)
T1 sequence (P07861 2-750): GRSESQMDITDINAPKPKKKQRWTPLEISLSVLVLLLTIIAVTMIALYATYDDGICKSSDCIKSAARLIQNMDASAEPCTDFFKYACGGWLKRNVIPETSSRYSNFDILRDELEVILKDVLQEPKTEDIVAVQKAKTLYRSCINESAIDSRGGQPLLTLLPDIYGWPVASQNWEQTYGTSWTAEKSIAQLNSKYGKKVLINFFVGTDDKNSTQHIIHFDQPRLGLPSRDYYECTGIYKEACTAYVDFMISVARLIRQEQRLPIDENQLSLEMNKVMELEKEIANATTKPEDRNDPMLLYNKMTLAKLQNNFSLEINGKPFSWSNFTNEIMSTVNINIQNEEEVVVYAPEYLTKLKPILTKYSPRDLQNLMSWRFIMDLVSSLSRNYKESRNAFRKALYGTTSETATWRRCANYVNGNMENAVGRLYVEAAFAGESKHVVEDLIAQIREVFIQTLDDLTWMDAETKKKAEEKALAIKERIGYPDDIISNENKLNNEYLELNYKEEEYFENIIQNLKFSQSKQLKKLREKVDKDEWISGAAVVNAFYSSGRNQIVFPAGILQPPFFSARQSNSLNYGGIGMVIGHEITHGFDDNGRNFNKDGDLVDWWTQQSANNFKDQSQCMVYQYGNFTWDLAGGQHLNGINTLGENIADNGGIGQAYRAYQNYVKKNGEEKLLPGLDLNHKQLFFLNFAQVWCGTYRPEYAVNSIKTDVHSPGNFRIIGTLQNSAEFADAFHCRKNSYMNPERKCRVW
Experimental: FIG. 4-A: Endopeptidase activity of the tissue membrane preparations was determined using 25 nM [3H] substanceP, in the presence of 10 μM bestatin. The enzymatic specific activity expressed in pM/min/μg membrane protein is done in the absence and in the presence of 10 μM sialorphin or NEP inhibitors (10 μM phosphoramidon or 1 μM thiorphan).
FIG. 4-B: Concentration-dependent inhibition by sialorphin of [3H] substanceP catabolism by rat renal membrane preparations. Each point represents the percentage of […] intact [3H] substanceP recovered and calculated as percentage of velocity without inhibitor−velocity in presence of inhibitor/velocity without inhibitor, and (*) represents the mean±SD of four determinations. Sialorphin concentration is expressed in nM and plotted on a log scale in B right. The protein concentration of membrane enzyme were defined according to conditions of measurement of initial velocity.
The same approach was applied to peripheral tissue membrane preparations that are known to be enriched in NEP-peptidase and/or to be targets for sialorphin, in vivo, i.e., renal outer medulla, intestine mucosa, placenta, prostate, dental and bone tissues, as well as submandibular epithelium (Rougeot, C. et al, American Journal of Physiology, (1997) 273, R1309-20; Sales et al., (1991) Regulatory Peptides 33, 209-22) and reviewed by Kenny et al., (1987), Mammalian ectoenzymes 169-210. There is evidence that, almost all these tissues contain substance P released from peripheral parasympathetic and sensory nerve terminals acting near the site of release on target cells that contain the neurokinin receptors to modulate the particular tissue function (McCarson et al., (1999), Neuroscience 93, 361-70). Thus, it appeared that the neuropeptide could be regarded as a relevant biologically NEP substrate at the periphery. However, substance P is cleaved potently by NEP and ACE membrane-bound peptidases, and both enzymes are highly distributed in the renal epithelium (Skidgel et al., (1985), Progress in Clinical & Biological Research 192, 371-8).
The specificity of the peptidase assay was assessed by testing the inhibitory efficacy of selective peptidase inhibitors (at 1-10 μM final concentration to induce maximum inhibitory response) on the endoproteolysis of 3H substance P by the various tissue-membrane enzymes, and by analysing the selective formation of the NEP-related tritiated product of the reaction that was defined, as above using spinal tissue. In addition, under standard conditions of initial velocity measurement, bestatin (10 μM) was added in the incubation medium to prevent unselectively the membrane aminopeptidase activities.

NEP [2] = target: T1, NEP; assay: Kinetic analysis of inhibition of substance P catabolism by rat renal membranes; type: biochemical
Experimental: The inhibitory potency of sialophin was measured by using substance P as substrate at concentrations indicated for A and B, and at 14-24 nM (blank triangle) or 56-105 nM (black triangle) for FIG. 5-C. Concentrations of inhibitor for FIG. 5-A and FIG. 5-B were 0 (black circles), 1500 (blank circle) and 4500 nM (blank diamond). Each point of the untransformed and double reciprocal plots represents the mean of 2 independent determinations of duplicate. Experiments were performed at 25° C. in 250 μl Tris-HCl buffer (50 mM pH 7.4) under initial velocity measurement conditions.
In order to determine inhibitor modality, all the measures of initial velocity of the renal enzymatic reaction were plotted versus substrate concentration for several fixed inhibitor concentrations or versus inhibitor concentration for fixed substrate concentrations.

inhibitory efficacy on ectopeptidase-sensitive substance P degradation (NEP [1]; inner bone tissues, n=4): 75±10%
inhibition at 10 µM (NEP [1]; male rat kidney membranes, 25 nM [3H] substance P, 10 μM bestatin, 10 μM sialorphin, n=9, read-out: inhibition of renal membrane substance-P-hydrolytic activity (maximum inhibitory response)): 60 ± 5%
protection of exogenous 3H substance P from catabolic process (NEP [1]; membrane fractions of the rat intestine): 87±17%
inhibition of substance-P-hydrolytic activity (NEP [1]; rat SMG (submandibular gland) membranes): 79%
reduction of 3H-substance P catabolic process (NEP [1]; rat inner dental tissue membranes, inhibitors at 1-10 μM (sialorphin 10 μM)): 39±14%
decrease of substance P degradation (NEP [1]; rat placenta and prostate tissue membranes, 10 μM): 70±3%
IC50 (NEP [1]; rat renal membrane preparations, read-out: IC50 on 3H substance-P degradation by rat kidney): 500 to 1000 nM
raising of the apparent Km of the enzyme for substrate (NEP [2]; 0, 1500 and 4500 nM inhibitor, substance P substrate, rat renal membranes): 2-5 fold
inhibitor modality (NEP [2]; untransformed, double-reciprocal and Dixon plots, [3H] substance P, renal membrane, 25° C.): competitive inhibition
SMILES: N=C(N)NCCC[C@H](NC(=O)[C@@H]1CCCN1C(=O)[C@H](CC(N)=O)NC(=O)[C@H](Cc1c[nH]cn1)NC(=O)[C@@H](N)CCC(N)=O)C(=O)O [sialorphin, Gln-His-Asn-Pro-Arg] (H-QHNPR-OH; N-terminus and C-terminus assumed)
